According to US11325899B2, “Benzofurane and benzothiophene derivatives as PGE2 receptor modulators” (IDORSIA PHARMACEUTICALS LTD, priority 2017, dated 2022):

Tests used:
Format in all cases: cell-based
[1] = target: T1, EP2 receptor (Homo sapiens, UniProt P43116); test: hEP2 cAMP assay (SF295 glioblastoma cells, HTRF cAMP, PGE2 stimulation); settings: antagonistic activity
T1 construct: SF295 glioblastoma cells express high endogenous EP2 and no EP4; host or cells: SF295 glioblastoma cells
Protocol: (§1) The antagonistic activities of the compounds of formula (I) on the EP2 and EP4 receptors are also determined in accordance with the following experimental method.
(§2) Human tumor cell lines expressing endogenously either EP4 or EP2 are used and cAMP accumulation in cells upon PGE2 stimulation is monitored. SF295 glioblastoma cells express high endogenous EP2 and no EP4, whereas BT549 breast cancer cells, express high endogenous EP4 levels and very low EP2 levels.
(§3) As a detection method for cAMP the HTRF (homogeneous time resolved fluorescence) Cisbio kit (HTRF cAMP dynamic 2 kit 20′000 tests Cisbio Cat. #62AM4PEC) was used, which is based on a competitive immunoassay using a Cryptate-labeled anti-cAMP antibody and d2-labeled cAMP. Native cAMP produced by cells or unlabeled cAMP (for the standard curve) compete with exogenously added d2-labeled cAMP (acceptor) for binding to monoclonal anti-cAMP-Eu3+ Cryptate (donor). A FRET signal (Fluorescence Resonance Energy Transfer) is obtained only if the labeled anti-cAMP antibody binds the d2 labelled cAMP, thus the specific signal (i.e. energy transfer) is inversely proportional to the concentration of cAMP in the standard or sample.
(§4) The SF295 cells (NCI/No. 0503170) are detached from culture dishes with a cell dissociation buffer (Invitrogen, 13151-014), and collected in growing medium (GM: RPM1640 (Invitrogen 21875)/10% FCS, 1% Penicilin/streptomycin). Cells are counted washed and resuspended in assay buffer (AB; HBSS, 20 mM HEPES, 0.2% BSA; 2 mM IBMX). 4′000 cells in 5 μl of AB are seeded per well of a small volume 384 well plate (black with flat bottom, Greiner 784076).
Stock solutions of test compounds are made at a concentration of 10 mM in DMSO, and serially diluted in DMSO to concentrations required for inhibition dose response curves (tested concentration range 30 μM-0.4 nM; 30 μM-0.015 nM or 1 μM-0.01 nM).
PGE2 (Cayman 14010, stock solution: 75 μM in DMSO) is used as agonist at 75 nM final concentration, corresponding to EC80.
(§5) Two point five microliters of diluted compounds are transferred into the assay plate. Plate is pre-incubated 45 minutes at room temperature. Subsequently, 2.5 microliters of PGE2 (final conc. 75 nM) are transferred into the assay plate. Plate is incubated 30 minutes at room temperature. Five μl of each donor (anti-cAMP cryptate) and acceptor (cAMP-d2) are added and the plate is incubated another hour at room temperature in the dark and then read using a BMG LABTECH PHERAstar reader (Excitation: 337 nm, Emission: 620 and 665 nm).
(§6) The obtained Delta F (fluorescence) values (665 nm/620 nM) are converted into % cAMP values using the measurements of the cAMP calibrator provided in the kit. For each compound concentration the percentage of cAMP compared to DMSO control value as average±STDEV (each concentration is measured in duplicate) is calculated.
(§7) IC50 values and curves are generated with XLfit software (IDBS) using Dose-Response One Site model 203. When compounds were measured multiple times, mean values are given.

[2] = target: T2, PTGER2 (EP2) (Homo sapiens, UniProt P43116); test: hEP2 b-arrestin assay (PathHunter HEK 293 PTGER2 b-arrestin cells); settings: antagonistic activity, beta-arrestin assay; read-out: hEP2 b-arr IC50
T2 construct: host or cells: HEK 293 (PathHunter PTGER2 b-arrestin cell line)
Protocol: (§8) The antagonistic activities of the compounds of formula (I) on the EP2 and EP4 receptors are determined in accordance with the following experimental method.
(§9) The assay is using the PathHunter™ HEK 293 PTGER2 and PTGER4 b-arrestin cell lines from DiscoverX. The system is based on the Enzyme Fragment Complementation Technology. Two complementing fragments of the b-galactosidase enzyme are expressed within stably transfected cells. The larger portion of b-gal, termed EA for Enzyme Acceptor, is fused to the C-terminus of b-arrestin 2. The smaller fragment, termed ProLink™ tag, is fused to PTGER2 (EP2) or PTRGER4 (EP4) at the C-terminus. Upon activation, b-arrestin is recruited which forces the interaction of ProLink and EA, allowing complementation of the two fragments of b-gal and the formation of a functional enzyme which is capable of hydrolysing the substrate and generating a chemiluminescent signal.
(§10) The HEK 293 PTGER2 b-arrestin cells (DiscoverX 93-021-4C1) are detached from culture dishes with a cell dissociation buffer (Invitrogen, 13151-014), and collected in growing medium (GM: DMEM+Glutamax-I (Invitrogen 32430)/10% FCS, 1% Penicilin/streptomycin). 5000 cells per well of a 384 well plate (white with white bottom Greiner 781080) are seeded in 20 ul per well of GM. Plate is incubated at 37° C., 5% C02 for 24 hours.
(§11) Stock solutions of test compounds are made at a concentration of 10 mM in DMSO, and serially diluted in DMSO to concentrations required for inhibition dose response curves (tested concentration range 10 μM-2 nM or 1 μM-0.2 nM).
PGE2 (Cayman 14010, stock solution: 10 mM in DMSO) is used as agonist at 5 μM final concentration, corresponding to EC80.
Five microliters of diluted compounds are transferred into the assay plate. Plate is pre-incubated 15 minutes at 37° C. Then five microliters of PGE2 (final conc. 5 μM) are transferred into the assay plate. Plate is incubated 120 minutes at 37° C.
(§12) PathHunter Glo Detection Kit components are thawed and mix according to manufacturer's instructions: 1 part Galacton Star Substrate with 5 parts Emerald II™ Solution, and 19 parts of PathHunter Cell Assay Buffer, respectively. Twelve μl of reagent are transferred to the assay plate and incubate for 1 hour at room temperature in the dark. Luminescence counts are read on a BMG Fluostar Optima reader according to manufacturer's instructions.
(§13) For each compound concentration calculate of the percentage of activity compared to DMSO control value as average±STDEV. (each concentration is measured in duplicate)
as §7

[3] = target: T3, PTGER4 (EP4) (Homo sapiens, UniProt P35408); test: hEP4 b-arrestin assay (PathHunter HEK 293 PTGER4 b-arrestin cells); settings: antagonistic activity, beta-arrestin assay; read-out: hEP4 b-arr IC50
T3 construct: host or cells: HEK 293 (PathHunter PTGER4 b-arrestin cell line)
Protocol: as §8, §9
as §10, with “PTGER4” for “PTGER2”, “93-030-4C1)” for “93-021-4C1)”
as §11
PGE2 (Cayman 14010, stock solution: 100 uM in DMSO) is used as agonist at 20 nM final concentration, corresponding to EC80.
Five microliters of diluted compounds are transferred into the assay plate. Plate is pre-incubated 15 minutes at 37° C. Then five microliters of PGE2 (final conc. 20 nM) are transferred into the assay plate. Plate is incubated 120 minutes at 37° C.
as §12, §13, §7

[4] = target: T4, EP4 receptor (Homo sapiens, UniProt P35408); test: hEP4 cAMP assay (BT549 breast cancer cells, HTRF cAMP, PGE2 stimulation); settings: antagonistic activity, PGE2 6 nM (EC80)
T4 construct: BT549 breast cancer cells, express high endogenous EP4 levels and very low EP2 levels; host or cells: BT549 breast cancer cells
Protocol: as §1, §2, §3
as §4, with “BT549” for “SF295”, “0507282)” for “0503170)”, “RPMI1640” for “RPM1640”
Stock solutions of test compounds are made at a concentration of 10 mM in DMSO, and serially diluted in DMSO to concentrations required for inhibition dose response curves (tested concentration range 30 μM-0.4 nM; 30 μM-0.015 nM or 1 uM-0.01 nM).
PGE2 (Cayman 14010, stock solution: 6 μM in DMSO) is used as agonist at 6 nM final concentration, corresponding to EC80.
as §5, with “6” for “75”, “(Excitation:337” for “(Excitation: 337”, “Emission:620” for “Emission: 620”
as §6, with “F(fluorescence)” for “F (fluorescence)”
as §7

T3 sequence (P35408 whole entry): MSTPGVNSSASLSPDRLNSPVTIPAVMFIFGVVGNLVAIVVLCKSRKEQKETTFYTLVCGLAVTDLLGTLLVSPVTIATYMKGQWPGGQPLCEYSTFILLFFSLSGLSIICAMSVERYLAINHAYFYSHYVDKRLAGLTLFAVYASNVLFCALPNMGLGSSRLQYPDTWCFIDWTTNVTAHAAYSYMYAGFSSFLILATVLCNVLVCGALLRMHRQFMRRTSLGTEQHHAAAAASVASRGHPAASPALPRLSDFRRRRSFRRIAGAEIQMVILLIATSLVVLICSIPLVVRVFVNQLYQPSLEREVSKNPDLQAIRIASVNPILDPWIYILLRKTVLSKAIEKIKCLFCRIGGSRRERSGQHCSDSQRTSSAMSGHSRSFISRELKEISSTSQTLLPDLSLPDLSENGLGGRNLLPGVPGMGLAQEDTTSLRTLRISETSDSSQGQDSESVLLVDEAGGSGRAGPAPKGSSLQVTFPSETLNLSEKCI
T4 sequence (P35408 whole entry): as above
T1 sequence (P43116 whole entry): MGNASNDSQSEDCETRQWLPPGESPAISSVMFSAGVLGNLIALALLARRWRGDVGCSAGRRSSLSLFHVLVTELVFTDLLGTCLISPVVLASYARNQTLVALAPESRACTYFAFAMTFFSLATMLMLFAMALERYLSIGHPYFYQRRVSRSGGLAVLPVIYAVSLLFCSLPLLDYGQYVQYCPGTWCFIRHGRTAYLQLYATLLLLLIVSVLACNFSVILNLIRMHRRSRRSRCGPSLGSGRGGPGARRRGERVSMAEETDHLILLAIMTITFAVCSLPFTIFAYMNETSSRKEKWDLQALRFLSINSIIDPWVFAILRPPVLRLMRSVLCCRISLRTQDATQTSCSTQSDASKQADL
T2 sequence (P43116 whole entry): as above

| Structure (SMILES) | IC50 [1] [nM] | IC50 [2] [nM] | IC50 [3] [nM] | IC50 [4] [nM] |
| --- | --- | --- | --- | --- |
| CSc1cc(-c2cc(NCCc3c(C)oc4ccccc34)ncn2)cc(F)c1C(=O)O [Example 49, 2-Fluoro-4-{6-[2-(2-methyl-benzofuran-3-yl)-ethylamino]-pyrimidin-4-yl}-6-methylsulfanyl-benzoic acid] | 1 | 2 | 3620 |  |
| CCOc1cc(-c2cc(NCCc3c(C)sc4c(C)cc(F)cc34)ncn2)ccc1NCC(=O)O [Example 128, (2-Ethoxy-4-{6-[2-(5-fluoro-2,7-dimethyl-benzo[b]thiophen-3-yl)-ethylamino]-pyrimidin-4-yl}-phenylamino)-acetic acid] | 37 |  |  | 82 |
| CSc1cc(-c2cc(NCCc3c(C)sc4ccccc34)ncn2)cc(F)c1C(=O)O [Example 48, 2-Fluoro-4-{6-[2-(2-methyl-benzo[b]thiophen-3-yl)-ethylamino]-pyrimidin-4-yl}-6-methylsulfanyl-benzoic acid] | 2 | 5 | 3380 |  |
| Cc1sc2c(C)cccc2c1CCNc1cc(-c2ccc3oc(C(=O)O)cc3c2)ncn1 [Example 78, 5-{6-[2-(2,7-Dimethyl-benzo[b]thiophen-3-yl)-ethylamino]-pyrimidin-4-yl}-benzofuran-2-carboxylic acid] | 7 |  |  | 87 |
| Cc1sc2c(Cl)ccc(Cl)c2c1CCNc1cc(-c2ccc(C(=O)O)c(O)c2)ncn1 [Example 11, 4-{6-[2-(4,7-Dichloro-2-methyl-benzo[b]thiophen-3-yl)-ethylamino]-pyrimidin-4-yl}-2-hydroxy-benzoic acid] | 71 | 99 | 3090 |  |
| CCOc1cc(-c2cc(NCCc3c(C)oc4ccccc34)ncn2)ccc1C(=O)O [Example 73, 2-Ethoxy-4-{6-[2-(2-methyl-benzofuran-3-yl)-ethylamino]-pyrimidin-4-yl}-benzoic acid] | 4 | 5 | 3500 |  |
| Cc1sc2c(C)cc(F)cc2c1CCNc1cc(-c2cc(OCCO)c(C(=O)O)s2)ncn1 [Example 41, 5-{6-[2-(5-Fluoro-2,7-dimethyl-benzo[b]thiophen-3-yl)-ethylamino]-pyrimidin-4-yl}-3-(2-hydroxy-ethoxy)-thiophene-2-carboxylic acid] | 13 |  |  | 42 |
| COc1cc(-c2cc(NCCc3c(C)sc4c(C)ccc(F)c34)ncn2)cc(C)c1C(=O)O [Example 74, 4-{6-[2-(4-Fluoro-2,7-dimethyl-benzo[b]thiophen-3-yl)-ethylamino]-pyrimidin-4-yl}-2-methoxy-6-methyl-benzoic acid] | 273 |  |  | 644 |
| CSc1cc(-c2cc(NCCc3c(C)oc4ccccc34)ncn2)cc(Cl)c1C(=O)O [Example 51, 2-Chloro-4-{6-[2-(2-methyl-benzofuran-3-yl)-ethylamino]-pyrimidin-4-yl}-6-methylsulfanyl-benzoic acid] | 1 | 10 | 3490 |  |
| CCOc1cc(-c2cc(NCCc3csc4ccccc34)ncn2)ccc1OCC(=O)O [Example 125, {4-[6-(2-Benzo[b]thiophen-3-yl-ethylamino)-pyrimidin-4-yl]-2-ethoxy-phenoxy}-acetic acid] | 359 |  |  | 426 |
| CCOc1cc(-c2cc(NCCc3c(C#N)sc4c(C)cc(F)cc34)ncn2)sc1C(=O)O [Example 26, 5-{6-[2-(2-Cyano-5-fluoro-7-methyl-benzo[b]thiophen-3-yl)-ethylamino]-pyrimidin-4-yl}-3-ethoxy-thiophene-2-carboxylic acid] | 1 |  |  | 2 |
| COc1cc(Cl)cc2c(CCNc3cc(-c4cc(C)c(C(=O)O)s4)ncn3)c(C)oc12 [Example 1, 5-{6-[2-(5-Chloro-7-methoxy-2-methyl-benzofuran-3-yl)-ethylamino]-pyrimidin-4-yl}-3-methyl-thiophene-2-carboxylic acid] |  | 59 | 142 | 22 |
